In patent US9096615B2, “Bridged bicyclic amino thiazine dioxide compounds as inhibitors of beta-secretase and methods of use thereof” (AMGEN INC., priority 2013, dated 2015):

Columns and labels:
[1] = molecular target: BACE1 (Homo sapiens, UniProt P56817); experiment: In vitro enzymatic BACE FRET assay; type: biochemical; conditions: average IC50; read-out: BACE1 Enzyme assay IC50
Outline: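 Fluorescence (excitation 488 nm, […]) from cleavage of quenched peptide substrate (50 nM), reaction run 1 h after 1 h enzyme–inhibitor pre-incubation, then neutralised with Tris. Conditions: 0.2 nM enzyme, pH 4.2 acetate 0.05 M, 10% DMSO final, 100 uM genapol.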

[2] = system: Aβ40 in conditioned medium of cells stably expressing Amyloid Precursor Protein (APP); experiment: In vitro BACE cell-based assay (HEK cell assay, Aβ40 sandwich ELISA); conditions: Homo sapiens, HEK293; average IC50; read-out: BACE1 cell assay IC50
Outline: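 IC50 was derived from percent-of-control Aβ40 against concentration, with Aβ40 quantified by time-resolved fluorescence ELISA (pAb40/6E10-biotin, 4 °C incubations). Supernatants were sampled after 24 h of compound exposure (10 points, starting 100 or 10 μM, 0.1% DMSO) of cells stably expressing APP.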

[3] = molecular target: T1, Cathepsin D (Cat D) (Homo sapiens, UniProt P07339); experiment: In vitro enzymatic Cathepsin D (Cat D) FRET assay; type: biochemical; conditions: average IC50; first procedure; read-out: CatD IC50
T1 construct: made in house; host or cells: CHO cells
T1 sequence (P07339 65-412, species assumed): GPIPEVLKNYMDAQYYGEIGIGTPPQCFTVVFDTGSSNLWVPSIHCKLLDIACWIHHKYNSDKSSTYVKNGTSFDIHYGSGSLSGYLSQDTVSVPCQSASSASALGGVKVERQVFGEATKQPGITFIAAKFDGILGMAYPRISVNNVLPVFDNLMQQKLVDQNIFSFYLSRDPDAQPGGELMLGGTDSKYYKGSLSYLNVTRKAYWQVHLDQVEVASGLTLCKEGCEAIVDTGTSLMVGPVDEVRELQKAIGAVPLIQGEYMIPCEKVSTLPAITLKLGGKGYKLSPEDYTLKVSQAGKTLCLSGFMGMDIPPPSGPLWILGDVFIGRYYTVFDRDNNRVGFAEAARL
Outline: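 Fluorescence (500 nm excitation, 580 nm emission) was measured after Tris quench of a 1 h cleavage of 20 nM quenched peptide substrate. Before that, 9 nM CHO-expressed human Cat D sat with compound for 1 h at pH 3.5 (0.05 M citrate, 5 mM CHAPS, 10% DMSO final).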

[4] = molecular target: T2, human Bace2 protein (Homo sapiens, UniProt Q9Y5Z0); experiment: In vitro enzymatic BACE2 FRET assay; type: biochemical; conditions: average IC50; read-out: BACE2 Enzyme assay IC50
T2 construct: V5 (C); 6-His (C)
T2 sequence (Q9Y5Z0 63-518): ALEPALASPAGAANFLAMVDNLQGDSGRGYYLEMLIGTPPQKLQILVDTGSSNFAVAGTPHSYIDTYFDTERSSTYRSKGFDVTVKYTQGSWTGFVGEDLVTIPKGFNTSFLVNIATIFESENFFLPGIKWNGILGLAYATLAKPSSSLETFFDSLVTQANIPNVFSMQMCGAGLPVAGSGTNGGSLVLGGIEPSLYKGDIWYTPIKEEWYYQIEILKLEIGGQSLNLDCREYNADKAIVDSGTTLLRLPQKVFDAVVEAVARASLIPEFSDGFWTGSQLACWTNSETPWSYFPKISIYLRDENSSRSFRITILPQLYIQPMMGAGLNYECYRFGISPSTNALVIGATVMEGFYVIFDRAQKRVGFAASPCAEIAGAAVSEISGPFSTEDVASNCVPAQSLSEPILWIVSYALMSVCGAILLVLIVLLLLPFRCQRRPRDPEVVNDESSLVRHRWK
Procedure: In Vitro Enzymatic BACE2 FRET (Fluorescence Resonance Energy Transfer) Assay
Enzyme Assay Data in the Table 3
The assay buffer used in this screen is 0.05 M acetate, pH 4.2, 10% DMSO final, 100 uM genapol (which is a nonionic detergent, below its Critical Micelle Concentration). The Beta Secretase2 enzyme (human Bace2 protein with C-terminal V5 and 6-His tag; 0.2 nM) is pre-incubated for one hour with inhibitors, typically in about 1 uL of DMSO according to a serial dilution, are added thereto. This assay is effectively started by the addition of FRET substrate (50 nM) and the combination is incubated for one hour. Final assay concentration of about 0.64 nM. The FRET assay is terminated with by addition of Tris buffer, which raises the pH to neutrality, and the fluorescence is determined. The FRET substrate is a peptide with commercially available fluorophore and quencher, on opposite sides of the BACE cleavage site. Proteolytic cleavage of the FRET substrate releases quenching of fluorescence (excitation 488 nm and […]).

BACE1, sequence (P56817 46-501, species assumed): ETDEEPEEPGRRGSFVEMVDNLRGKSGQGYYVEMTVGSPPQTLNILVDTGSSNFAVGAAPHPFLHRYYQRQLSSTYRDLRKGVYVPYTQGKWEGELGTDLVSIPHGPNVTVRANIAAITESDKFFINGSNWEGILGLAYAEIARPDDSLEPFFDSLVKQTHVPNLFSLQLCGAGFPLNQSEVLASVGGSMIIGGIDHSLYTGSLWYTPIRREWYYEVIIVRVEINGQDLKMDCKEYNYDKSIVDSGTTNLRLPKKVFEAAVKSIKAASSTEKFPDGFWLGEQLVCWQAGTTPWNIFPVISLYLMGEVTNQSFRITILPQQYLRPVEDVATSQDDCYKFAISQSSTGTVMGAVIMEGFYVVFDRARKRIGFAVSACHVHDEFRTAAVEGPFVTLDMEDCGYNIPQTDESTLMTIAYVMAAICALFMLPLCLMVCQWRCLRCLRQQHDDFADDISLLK

CC#CCOc1ccc(C(=O)Nc2ccc(F)c([C@@]3(C)N=C(N)[C@]4(C)CC[C@H]3S4(=O)=O)c2)c(F)c1 [Example 129, N-(3-((1R,2R,5S)-4-amino-2,5-dimethyl-8,8-dioxido-8-thia-3-azabicyclo[3.2.1]oct-3-en-2-yl)-4-fluorophenyl)-4-(2-butyn-1-yloxy)-2-fluorobenzamide]
IC50 [1]: 61 nM
IC50 [2]: 44 nM
IC50 [3]: 348 µM
IC50 [4]: 7000 nM

Cc1cc(Cl)cnc1C(=O)Nc1ccc(F)c([C@@]2(CF)N=C(N)[C@@]3(C)CC[C@@H]2S3(=O)=O)c1 (single isomer, unassigned) [Example 118]
IC50 [1]: 17 nM
IC50 [2]: 62 nM
IC50 [3]: > 400 µM
IC50 [4]: 2 nM

Cc1cc(Cl)cnc1C(=O)Nc1ccc(F)c([C@@]2(C)N=C(N)[C@]3(CF)CC[C@H]2S3(=O)=O)c1 [Example 89, N-(3-((1R,2R,5S)-4-amino-5-(fluoromethyl)-2-methyl-8,8-dioxido-8-thia-3-azabicyclo[3.2.1]oct-3-en-2-yl)-4-fluorophenyl)-5-chloro-3-methyl-2-pyridinecarboxamide]
IC50 [1]: 16 nM
IC50 [2]: 53 nM
IC50 [3]: 1550 µM
IC50 [4]: 6 nM

C#CCOc1cnc2c(Nc3ccc(F)c([C@@]4(C)N=C(N)[C@@]5(CF)CC[C@@H]4S5(=O)=O)c3)nccc2n1 [Example 46, N-(3-((1S,2R,5R)-4-amino-5-(fluoromethyl)-2-methyl-8,8-dioxido-8-thia-3-azabicyclo[3.2.1]oct-3-en-2-yl)-4-fluorophenyl)-2-(2-propyn-1-yloxy)pyrido[3,4-b]pyrazin-5-amine]
IC50 [1]: 1 nM
IC50 [2]: 5 nM
IC50 [3]: 1000 µM
IC50 [4]: 9 nM

C[C@]1(c2cc(Nc3ncc(F)c4cc(C#N)cnc34)ccc2F)N=C(N)[C@@]2(CF)CC[C@@H]1S2(=O)=O [Example 53, 8-((3-((1S,2R,5R)-4-amino-5-(fluoromethyl)-2-methyl-8,8-dioxido-8-thia-3-azabicyclo[3.2.1]oct-3-en-2-yl)-4-fluorophenyl)amino)-5-fluoro-1,7-naphthyridine-3-carbonitrile]
IC50 [1]: 3 nM
IC50 [2]: 38 nM
IC50 [3]: > 14.8 µM
IC50 [4]: 2 nM

C[C@]1(c2cc(Nc3ncc(F)c4cc(Cl)cnc34)ccc2F)N=C(N)[C@@]2(CF)CC[C@@H]1S2(=O)=O [Example 54, N-(3-((1S,2R,5R)-4-amino-5-(fluoromethyl)-2-methyl-8,8-dioxido-8-thia-3-azabicyclo[3.2.1]oct-3-en-2-yl)-4-fluorophenyl)-3-chloro-5-fluoro-1,7-naphthyridin-8-amine]
IC50 [1]: 2 nM
IC50 [2]: 90 nM
IC50 [3]: 755 µM
IC50 [4]: 2 nM

CC#CCOc1cnc2c(Nc3ccc(F)c([C@@]4(C)N=C(N)[C@]5(C)CC[C@H]4S5(=O)=O)c3)nccc2n1 [Example 63, N-(3-((1R,2R,5S)-4-amino-2,5-dimethyl-8,8-dioxido-8-thia-3-azabicyclo[3.2.1]oct-3-en-2-yl)-4-fluorophenyl)-2-(2-butyn-1-yloxy)pyrido[3,4-b]pyrazin-5-amine]
IC50 [1]: 3 nM
IC50 [2]: 2 nM
IC50 [3]: 1180 µM
IC50 [4]: 321 nM

C[C@]1(c2cc(Nc3ncnc4cc(Br)cnc34)ccc2F)N=C(N)[C@@]2(CF)CC[C@@H]1S2(=O)=O [Example 47, N-(3-((1S,2R,5R)-4-amino-5-(fluoromethyl)-2-methyl-8,8-dioxido-8-thia-3-azabicyclo[3.2.1]oct-3-en-2-yl)-4-fluorophenyl)-7-bromopyrido[3,2-d]pyrimidin-4-amine]
IC50 [1]: 7 nM
IC50 [2]: 36 nM
IC50 [3]: 174 µM
IC50 [4]: 2 nM

C[C@]1(c2cc(Nc3ncnc4cc(OCC5CC5)cnc34)ccc2F)N=C(N)[C@@]2(C)CC[C@@H]1S2(=O)=O [Example 139, N-(3-((1S,2R,5R)-4-amino-2,5-dimethyl-8,8-dioxido-8-thia-3-azabicyclo[3.2.1]oct-3-en-2-yl)-4-fluorophenyl)-7-(cyclopropylmethoxy)pyrido[3,2-d]pyrimidin-4-amine]
IC50 [1]: 5 nM
IC50 [2]: 5 nM
IC50 [3]: 1280 µM
IC50 [4]: 67 nM

C[C@]1(c2cc(Nc3nccc4cc(Cl)cnc34)ccc2F)N=C(N)[C@@]2(CF)CC[C@@H]1S2(=O)=O [Example 58, N-(3-((1S,2R,5R)-4-amino-5-(fluoromethyl)-2-methyl-8,8-dioxido-8-thia-3-azabicyclo[3.2.1]oct-3-en-2-yl)-4-fluorophenyl)-3-chloro-1,7-naphthyridin-8-amine]
IC50 [1]: 1 nM
IC50 [2]: 46 nM
IC50 [3]: 342 µM
IC50 [4]: 2 nM

C[C@]1(c2cc(Nc3nccc4nc(C(F)(F)F)cnc34)ccc2F)N=C(N)[C@@]2(CF)CC[C@@H]1S2(=O)=O [Example 55, N-(3-((1S,2R,5R)-4-amino-5-(fluoromethyl)-2-methyl-8,8-dioxido-8-thia-3-azabicyclo[3.2.1]oct-3-en-2-yl)-4-fluorophenyl)-2-(trifluoromethyl)pyrido[3,4-b]pyrazin-5-amine]
IC50 [1]: 18 nM
IC50 [2]: 351 nM
IC50 [3]: > 133 µM
IC50 [4]: 24 nM

C#CCOc1cnc(C(=O)Nc2ccc(F)c([C@@]3(C)N=C(N)[C@@]4(CF)CC[C@@H]3S4(=O)=O)c2)c(Cl)c1 [Example 60, N-(3-((1S,2R,5R)-4-amino-5-(fluoromethyl)-2-methyl-8,8-dioxido-8-thia-3-azabicyclo[3.2.1]oct-3-en-2-yl)-4-fluorophenyl)-3-chloro-5-(2-propyn-1-yloxy)-2-pyridinecarboxamide]
IC50 [1]: 1 nM
IC50 [2]: 8 nM
IC50 [3]: 953 µM
IC50 [4]: 10 nM

C#CC(C)(C)Oc1cnc(C(=O)Nc2ccc(F)c([C@@]3(C)N=C(N)[C@@]4(CF)CC[C@@H]3S4(=O)=O)c2)cn1 [Example 44, N-(3-((1S,2R,5R)-4-amino-5-(fluoromethyl)-2-methyl-8,8-dioxido-8-thia-3-azabicyclo[3.2.1]oct-3-en-2-yl)-4-fluorophenyl)-5-((1,1-dimethyl-2-propyn-1-yl)oxy)-2-pyrazinecarboxamide]
IC50 [1]: 34 nM
IC50 [2]: 153 nM
IC50 [3]: > 400 µM
IC50 [4]: 283 nM

CC#C[C@H](C)Oc1cnc(C(=O)Nc2ccc(F)c([C@@]3(C)N=C(N)[C@@]4(C)CC[C@@H]3S4(=O)=O)c2)cn1 [Example 71, N-(3-((1S,2R,5R)-4-amino-2,5-dimethyl-8,8-dioxido-8-thia-3-azabicyclo[3.2.1]oct-3-en-2-yl)-4-fluorophenyl)-5-(((1S)-1-methyl-2-butyn-1-yl)oxy)-2-pyrazinecarboxamide]
IC50 [1]: 3 nM
IC50 [2]: 0.1 nM
IC50 [3]: > 400 µM
IC50 [4]: 8 nM

CC#CCOc1cnc(C(=O)Nc2ccc(F)c([C@@]3(C)N=C(N)[C@]4(C)CC[C@H]3S4(=O)=O)c2)cn1 [Example 83, N-(3-((1R,2R,5S)-4-amino-2,5-dimethyl-8,8-dioxido-8-thia-3-azabicyclo[3.2.1]oct-3-en-2-yl)-4-fluorophenyl)-5-(2-butyn-1-yloxy)-2-pyrazinecarboxamide]
IC50 [1]: 1 nM
IC50 [2]: 0.5 nM
IC50 [3]: 1100 µM
IC50 [4]: 82 nM

CC(C)(C)C#CCOc1cnc(C(=O)Nc2ccc(F)c([C@@]3(C)N=C(N)C4(CF)CCC3S4(=O)=O)c2)cn1 (stereo in doubt) [Example 38, N-(3-((1S,2R,5R)-4-Amino-5-(fluoromethyl)-2-methyl-8,8-dioxido-8-thia-3-azabicyclo[3.2.1]oct-3-en-2-yl)-4-fluorophenyl)-5-((4,4-dimethylpent-2-yn-1-yl)oxy)pyrazine-2-carboxamide]
IC50 [1]: 4 nM
IC50 [2]: 31 nM
IC50 [3]: 437 µM
IC50 [4]: 11 nM
